Assay results taken from PubChem BioAssay AID248 (DTP/NCI, 2004).
“And” between values parts separate entries of the source, which are not always exact repeats. Equal values may be shown once. Inconclusive results and toxic doses are left out. Rule as the data show it: active = T/C of 150% or more; inactive = T/C below 125%.

Test system: L1210 leukemia ip in BDF1 mice, survival T/C
Experiment: NCI In Vivo Anticancer Drug Screen. Data for tumor model L1210 Leukemia (intraperitoneal) in B6D2F1 (BDF1) mice
Details: endpoint: mean survival time, higher = longer survival
Method in brief: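 Read-out is survival time, reported as the treated-group measurement over the vehicle-control measurement.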

[1] = dose: 100.0 mg/kg/injection, schedule: Q04DX003 (ip), vehicle: saline
[2] = dose: 200.0 mg/kg/injection, schedule: Q04DX003 (ip), vehicle: saline
[3] = dose: 400.0 mg/kg/injection, schedule: Q04DX003 (ip), vehicle: saline
[4] = dose: 100.0 mg/kg/injection, schedule: Q01DX001 (ip), vehicle: Klucel (hydroxypropylcellulose) (HPC)
[5] = dose: 200.0 mg/kg/injection, schedule: Q01DX001 (ip), vehicle: Klucel (hydroxypropylcellulose) (HPC)
[6] = dose: 400.0 mg/kg/injection, schedule: Q01DX001 (ip), vehicle: Klucel (hydroxypropylcellulose) (HPC)
[7] = dose: 100.0 mg/kg/injection, schedule: Q04DX003 (ip), vehicle: saline with Tween-80
[8] = dose: 200.0 mg/kg/injection, schedule: Q04DX003 (ip), vehicle: saline with Tween-80
[9] = dose: 400.0 mg/kg/injection, schedule: Q04DX003 (ip), vehicle: saline with Tween-80
[10] = dose: 100.0 mg/kg/injection, schedule: Q01DX001 (ip), vehicle: saline
[11] = dose: 200.0 mg/kg/injection, schedule: Q01DX001 (ip), vehicle: saline
[12] = dose: 400.0 mg/kg/injection, schedule: Q01DX001 (ip), vehicle: saline
[13] = dose: 100.0 mg/kg/injection, schedule: Q04DX003 (ip), vehicle: Klucel (hydroxypropylcellulose) (HPC)
[14] = dose: 200.0 mg/kg/injection, schedule: Q04DX003 (ip), vehicle: Klucel (hydroxypropylcellulose) (HPC)
[15] = dose: 400.0 mg/kg/injection, schedule: Q04DX003 (ip), vehicle: Klucel (hydroxypropylcellulose) (HPC)
[16] = dose: 100.0 mg/kg/injection, schedule: Q01DX009 (ip), vehicle: saline
[17] = dose: 25.0 mg/kg/injection, schedule: Q04DX003 (ip), vehicle: saline with Tween-80
[18] = dose: 50.0 mg/kg/injection, schedule: Q04DX003 (ip), vehicle: saline with Tween-80

Measured: T/C

CC(=O)N(N=O)c1ccc(C)cc1
inactive: dose: 5.0 mg/kg/injection, schedule: Q01DX001 (ip), vehicle: saline 101 % of control | dose: 10.0 mg/kg/injection, schedule: Q01DX001 (ip), vehicle: saline 92 % of control | dose: 20.0 mg/kg/injection, schedule: Q01DX001 (ip), vehicle: saline 92 % of control | dose: 40.0 mg/kg/injection, schedule: Q01DX001 (ip), vehicle: saline 106 % of control

COc1ccc(C(O)S(=O)(=O)O)cc1 (centres undefined)
inactive: [1] 98 % of control | [2] 100 % of control | [3] 100 % of control

CC(=O)NNCc1ccccc1
inactive: [4] 103 % of control | [5] 103 % of control | [6] 97 % of control

COC(=O)C(c1ccccc1)C1(O)CCN(CC2COc3ccccc3O2)CC1 (centres undefined)
inactive: dose: 25.0 mg/kg/injection, schedule: Q01DX001 (ip), vehicle: Klucel (hydroxypropylcellulose) (HPC) 96 % of control | dose: 50.0 mg/kg/injection, schedule: Q01DX001 (ip), vehicle: Klucel (hydroxypropylcellulose) (HPC) 93 % of control | [4] 97 % of control and 102 % of control

O=[N+]([O-])c1ccc(OCc2ccc(S(=O)(=O)Oc3cccnc3)cc2)c(Cl)c1
inactive: [4] 94 % of control | [5] 98 % of control | [6] 89 % of control

COc1cc(Br)c(/C=C/C(=O)O)cc1OC
inactive: [7] 95 % of control | [8] 93 % of control | [9] 92 % of control

O=C(COc1ccccc1)NCc1ccccc1
inactive: [1] 94 % of control | [2] 92 % of control | [3] 92 % of control

O=C(O)c1cc(=O)n(CCCn2c(=O)cc(C(=O)O)[nH]c2=O)c(=O)[nH]1
inactive: dose: 100.0 mg/kg/injection, schedule: Q04DX002 (ip), vehicle: saline with Tween-80 93 % of control | dose: 200.0 mg/kg/injection, schedule: Q04DX002 (ip), vehicle: saline with Tween-80 101 % of control | dose: 400.0 mg/kg/injection, schedule: Q04DX002 (ip), vehicle: saline with Tween-80 89 % of control

CC(CCO)CCC1OC1(C)C (centres undefined)
inactive: [10] 103 % of control | [11] 105 % of control | [12] 103 % of control

CC(C)C1=CC(=O)OC1C(O)C(C)C1CCC2C3CC=C4CC(O)CCC4(C)C3CCC12C (centres undefined)
inactive: [13] 102 % of control | [14] 96 % of control | [15] 94 % of control

CCOC1OCN(C)CC1(C)C (centres undefined)
inactive: dose: 50.0 mg/kg/injection, schedule: Q01DX009 (ip), vehicle: saline 93 % of control | [16] 109 % of control | [1] 101 % of control | dose: 132.0 mg/kg/injection, schedule: Q01DX009 (ip), vehicle: saline sonified 113 % of control | dose: 200.0 mg/kg/injection, schedule: Q01DX009 (ip), vehicle: saline sonified 118 % of control | [2] 97 % of control

N#CCC[CH2][Sn]([Br])([Br])[c]1ccccc1
inactive: dose: 3.12 mg/kg/injection, schedule: Q04DX003 (ip), vehicle: saline 91 % of control | dose: 6.25 mg/kg/injection, schedule: Q04DX003 (ip), vehicle: saline 96 % of control | dose: 12.5 mg/kg/injection, schedule: Q04DX003 (ip), vehicle: saline 91 % of control

Cc1nc2ncnc(NCc3ccc(Cl)cc3Cl)c2[nH]1
inactive: [10] 97 % of control | [11] 89 % of control | [12] 108 % of control

CC1=CCC(C/C=N/N=C/CC2CC=C(C)C2(C)C)C1(C)C (centres undefined)
inactive: dose: 100.0 mg/kg/injection, schedule: Q01DX009 (sc), vehicle: olive oil, sesame oil, peanut oil 100 % of control | dose: 100.0 mg/kg/injection, schedule: Q04DX003 (sc), vehicle: olive oil, sesame oil, peanut oil 97 % of control | dose: 200.0 mg/kg/injection, schedule: Q01DX009 (sc), vehicle: olive oil, sesame oil, peanut oil 100 % of control | dose: 200.0 mg/kg/injection, schedule: Q04DX003 (sc), vehicle: olive oil, sesame oil, peanut oil 101 % of control | dose: 400.0 mg/kg/injection, schedule: Q01DX009 (sc), vehicle: olive oil, sesame oil, peanut oil 98 % of control | dose: 400.0 mg/kg/injection, schedule: Q04DX003 (sc), vehicle: olive oil, sesame oil, peanut oil 106 % of control

O=[N+]([O-])c1ccc(/C=N/N2CCCCC2)s1
inactive: [7] 97 % of control | [8] 92 % of control | [9] 89 % of control

O=C(NC1CCCCC1)Oc1ccc(Cl)cc1Cl
inactive: dose: 100.0 mg/kg/injection, schedule: Q04DX002 (ip), vehicle: Klucel (hydroxypropylcellulose) (HPC) 93 % of control | dose: 200.0 mg/kg/injection, schedule: Q04DX002 (ip), vehicle: Klucel (hydroxypropylcellulose) (HPC) 96 % of control | dose: 400.0 mg/kg/injection, schedule: Q04DX002 (ip), vehicle: Klucel (hydroxypropylcellulose) (HPC) 93 % of control

O=C1Nc2cccc3cc(NCC(O)CCCl)cc1c23 (centres undefined)
inactive: [10] 90 % of control | [11] 89 % of control | [12] 100 % of control

CC1CNC(=S)O1 (centres undefined)
inactive: dose: 50.0 mg/kg/injection, schedule: Q04DX003 (ip), vehicle: saline 96 % of control | [1] 98 % of control | [2] 101 % of control | [3] 108 % of control

COC(C)c1cnccc1/C(C)=C1/Nc2ccccc2C1=O (centres undefined)
inactive: dose: 50.0 mg/kg/injection, schedule: Q04DX003 (ip), vehicle: Klucel (hydroxypropylcellulose) (HPC) 95 % of control | [4] 107 % of control | [13] 100 % of control and 91 % of control | [5] 94 % of control | [14] 96 % of control | [6] 97 % of control | [15] 97 % of control

Cc1nc2ccccc2o1
inactive: dose: 100.0 mg/kg/injection, schedule: Q04DX002 (ip), vehicle: other 104 % of control | dose: 200.0 mg/kg/injection, schedule: Q04DX002 (ip), vehicle: other 96 % of control | dose: 400.0 mg/kg/injection, schedule: Q04DX002 (ip), vehicle: other 118 % of control

NC(=O)C1(c2ccccc2)CC1
inactive: [16] 100 % of control | [1] 88 % of control | dose: 200.0 mg/kg/injection, schedule: Q01DX009 (ip), vehicle: saline 103 % of control | [2] 93 % of control | [3] 107 % of control

NC1CCc2ccccc2C(O)C1c1ccccc1 (centres undefined)
inactive: dose: 25.0 mg/kg/injection, schedule: Q01DX009 (ip), vehicle: saline with Tween-80 97 % of control | [17] 107 % of control | dose: 50.0 mg/kg/injection, schedule: Q01DX009 (ip), vehicle: saline with Tween-80 105 % of control | [18] 104 % of control | dose: 100.0 mg/kg/injection, schedule: Q01DX009 (ip), vehicle: saline with Tween-80 100 % of control | [7] 102 % of control

COc1ccc(/C=C/c2cc[n+](C)cc2)cc1
inactive: dose: 12.5 mg/kg/injection, schedule: Q04DX003 (ip), vehicle: saline with Tween-80 97 % of control | [17] 94 % of control | [18] 94 % of control

Cc1c2cnccc2c(C)c2c1sc1ccccc12
inactive: dose: 75.0 mg/kg/injection, schedule: Q01DX001 (ip), vehicle: other 101 % of control | dose: 150.0 mg/kg/injection, schedule: Q01DX001 (ip), vehicle: other 106 % of control | dose: 300.0 mg/kg/injection, schedule: Q01DX001 (ip), vehicle: other 124 % of control

CCOC(=O)Nc1ccc(OC)cc1
inactive: dose: 100.0 mg/kg/injection, schedule: Q01DX009 (ip), vehicle: Klucel (hydroxypropylcellulose) (HPC) 96 % of control | [13] 103 % of control | dose: 200.0 mg/kg/injection, schedule: Q01DX009 (ip), vehicle: Klucel (hydroxypropylcellulose) (HPC) 98 % of control | [14] 97 % of control | dose: 400.0 mg/kg/injection, schedule: Q01DX009 (ip), vehicle: Klucel (hydroxypropylcellulose) (HPC) 93 % of control | [15] 98 % of control

O=CC(OC(=O)c1ccccc1)C(OC(=O)c1ccccc1)C(COC(c1ccccc1)(c1ccccc1)c1ccccc1)OC(=O)c1ccccc1 (centres undefined)
inactive: dose: 50.0 mg/kg/injection, schedule: Q01DX001 (ip), vehicle: carboxymethylcellulose (CMC) 97 % of control | dose: 100.0 mg/kg/injection, schedule: Q01DX001 (ip), vehicle: carboxymethylcellulose (CMC) 103 % of control | dose: 200.0 mg/kg/injection, schedule: Q01DX001 (ip), vehicle: carboxymethylcellulose (CMC) 103 % of control | dose: 400.0 mg/kg/injection, schedule: Q01DX001 (ip), vehicle: carboxymethylcellulose (CMC) 91 % of control
